We go through one substance from patent US7012128B2, “Interaction between cyclin D1 and steroid receptor co-activators and uses thereof in assays” (TopoTarget UK Limited, priority 1998, dated 2006).

In one assay the test system is wild type ER. The assay is described as follows: ERE-TATA-luciferase transactivation of wild type ER in COS-7 cells. It is filed as cell-based. The conditions noted are these: COS-7, wild type ER, presence of ligand. The protocol: FIG. 1. Mapping of the region of cyclin D1 required for ER-mediated transactivation. • (A) The effect of cyclin D1 deletion mutants on ER activation in the presence of ligand. The cyclin D1 derivatives used in this study are shown in the left panel; right side of Figure represents the relative capacity of the mutants to potentiate ERE-dependent transcription. ER-negative COS-7 cells were transfected with expression vectors for wild type ER (200 ng), cyclin D1 or cyclin D1 mutants (2.5 μg), an internal control §-galactosidase plasmid (0.5 μg) and an ERE-TATA-luciferase reporter (3 μg). The effect on ER transactivation of wild type cyclin D1 was set to 100%. These studies were performed in three separate experiments and expressed as mean values with standard deviation less then […]. The alignment of leucine-rich motif of ER with D-type cyclins are shown on the bottom; the leucine-rich motif in cyclin D1 is indicated as a dark box. The identifiers for the sequences shown are as follows: Cyclin D1 (SEQ ID NO:11), Estrogen receptor (SEQ ID NO:12), the Cyclin D2 (SEQ ID NO:13), and the Cyclin D3 (SEQ ID NO:14). • (B) ER activation by D-type cyclins, cyclin D1 L254/255A point mutant (D1-LALA) and SRC-1 in the presence of ligand. COS-7 cells were transfected with D-type cyclin expression vectors, cyclin D1 Leucine-to-Alanine point mutant (D1-LALA) or SRC-1 expression vector together with wild type ER expression vector, an ERE-TATA-luciferase reporter plasmid and the internal control β-galactosidase construct. Data are expressed as relative luciferase activity compared with basal ERE-luciferase activity of wild type ER and are normalized for transfection efficiencies.
FIG. 3. Role of coactivators in cyclin D1—induced transactivation. • (A) Effect of a dominant negative form of SRC-1 (SRC1-DN) on ER transactivation. SRC1-DN encoding amino acids 1245-1441 of SRC-1 (1, 2.5 and 5 μg) was introduced by transient transfection together with wild type ER (200 ng) and was tested for its ability to modulate ERE-dependent transcription. • (B) Effect of SRCI-DN on SRC-1 and TIF 2 mediated ER transactivation. SRC-1 (3 μg) or TIF-2 (3 μg) were transfected with SRC1-DN (3 μg) and tested for ER transactivation. • (C) Effect of SRC1-DN on cyclin D1-induced transactivation of ER 1-535 mutant. Cyclin D1 was cotransfected with SRC1-DN (1, 2.5, 5 μg) and tested for its effect on an ER harboring a deletion of coactivator binding site in helix 12 (ER 1-535). • (D) Effect of SRC1-DN on cyclin D1-induced transactivation of ER L543/544A mutant. Cyclin D1 and SRC1-DN (1, 2.5, 5 gg) were transfected and tested for the activity of ER helix 12 point mutant (ER L543/544A). The transient transfections (A-C) were performed in COS-7 cells, which were maintained in DMEM with 10 nM ligand. The relative activity was calculated by normalizing to the internal control and was divided by luciferase activity of ER (mutant) in the presence of ligand. The transfection for each set of conditions were done at least in four independent experiments and expressed as average ±SD.
To study how cyclin D1 activates ER, cyclin D1 deletion mutants were tested for their effect on ER-transactivation. COS-7 cells were transfected with cyclin D1 mutants, together with ER and a luciferase reporter gene construct driven by a minimal TATA promoter linked to an estrogen response element (ERE). […] This part of the protein is not involved in CDK interaction and is poorly conserved among the different cyclins. […] To test the relevance of this leucine-rich domain of cyclin D1 in ER activation, a cyclin D1 mutant was constructed in which leucines 254 and 255 were mutated to alanines (D1 L254/255A). This mutation in cyclin D1 is similar to the mutation in ER (ER L543/544A) that interferes with coactivator binding to AF-2 (Danielian et al., 1992). […]

Another assay has as its target T1, ER (Homo sapiens, UniProt P03372).
T1 sequence (P03372 1-595): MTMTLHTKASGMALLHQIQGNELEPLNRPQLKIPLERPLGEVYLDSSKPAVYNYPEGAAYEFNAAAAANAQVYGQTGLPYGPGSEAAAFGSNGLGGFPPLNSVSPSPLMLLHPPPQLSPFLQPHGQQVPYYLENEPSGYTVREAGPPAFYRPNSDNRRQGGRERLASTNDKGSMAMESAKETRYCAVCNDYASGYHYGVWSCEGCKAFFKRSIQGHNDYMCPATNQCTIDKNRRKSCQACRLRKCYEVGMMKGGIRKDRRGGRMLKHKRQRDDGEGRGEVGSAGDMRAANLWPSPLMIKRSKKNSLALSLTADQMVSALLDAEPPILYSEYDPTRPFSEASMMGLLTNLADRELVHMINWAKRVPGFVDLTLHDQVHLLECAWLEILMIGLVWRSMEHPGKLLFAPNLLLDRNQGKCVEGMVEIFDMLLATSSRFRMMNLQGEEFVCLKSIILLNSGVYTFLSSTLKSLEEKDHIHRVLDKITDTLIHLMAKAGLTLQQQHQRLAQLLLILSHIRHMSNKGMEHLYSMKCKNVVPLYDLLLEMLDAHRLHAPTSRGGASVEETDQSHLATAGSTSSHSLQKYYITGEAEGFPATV
The assay is described as follows: ER activation, ERE-reporter gene, in MCF-7 cells. It is filed as cell-based. Further details: T47D and MCF-7, which contain endogenous wild type ER; endogenous in cells; host or cells: MCF-7; T47D. Conditions: MCF-7, relative high levels of cyclin D1; 17β-estradiol enriched medium. The text has this: The ER-containing T47D and MCF-7 breast cancer cells were maintained in 17β-estradiol enriched medium with 10%fetal calf serum after cotransfection with a cyclin D1 L254/255A mutant expression vector and an ERE-reporter gene for testing its effect on ER activation (left panel). ER transactivation in the absence of co-expression of the cyclin D1 mutant was set at 100%.
To get more insight in the role of cyclin D1 in ER transactivation in breast cancers with elevated levels of cyclin D1, we have tested the effect of the mutant cyclin D1 L254/255A on ER activation in two different breast cancer cell lines. This cyclin D1 mutant does bind to ER, but fails both to interact with SRC-1 as shown above and consequently fails to activate ER (FIG. 1B). Therefore, this mutant can act as a dominant negative in cyclin D1-mediated ER transactivation as it binds to ER and fails to recruit coactivators. We tested the effect of this cyclin D1 mutant on ER activation in two breast cancer cell lines, T47D and MCF-7, which contain endogenous wild type ER, but differ in their cyclin D1 protein levels (FIG. 6). […] In contrast, in MCF-7, which contain relative high levels of cyclin D1 (FIG. 6), the cyclin D1 mutant inhibited up to 50% of ER activity. Thus, this dominant negative cyclin D1 mutant preferentially interferes with ER activation in breast cancer cells that have high levels of cyclin D1 protein.

As for “Cyclin D1-LALA: cyclin D1 mutant in which leucines 254 and 255 were mutated to alanines; dominant negative”, the ER transactivation capacity entry in the assay with wild type ER is listed as “virtually unable to activate wild type ER”. Moreover, the “inhibition of ER activity” value with ER is “up to 50%”.
